# Test results taken from article PMC5908301, “Small molecule CXCR4 antagonists block the HIV-1 Nef/CXCR4 axis and selectively initiate the apoptotic program in breast cancer cells” (Oncotarget, 2018).
# Entries after “also recorded” stand apart in the source; their conditions may differ. Like-named read-outs stand apart in the source and are kept apart here.
# Tests used:
# MDA-MB-231 cells [1] = settings: Figure 8B, TUNEL
# Protocol: (D) MDA-MB-231 cells mock treated were analyzed via TUNEL.
# (§1) Cells were grown to 80% confluence in 35 mm plates, either untreated or treated with 10 ng/ml of Nef Motif1 or CXCR4 antagonists for 24 hours. The cells were washed twice in ice-cold PBS and then fixed in 4% paraformaldehyde 1 hour. TUNEL assay for apoptosis and microscopy were done as described previously.
# [2] = tested on: Jurkat T-lymphocyte cells; assay: Inhibition of Nef M1 peptide-induced mitochondrial depolarization/apoptosis in Jurkat cells (JC-1); assay type: cell-based, human; settings: for EC50: JC-1; for protection against M1 (control drugs): data not shown
# HIV-1IIIB = assay: MAGI antiviral (entry) assay with HIV-1IIIB in HeLa-derived MAGI-CCR5/CXCR4 cells; assay type: cell-based
# Protocol: MAGI-CCR5/CXCR4 cells are derived from HeLa-CD4-LTR-β-gal cells. The cells have been engineered to express high levels of CD4 and CXCR4 and contain one copy of the HIV-1 LTR promoter driving expression of the β-galactosidase gene upon HIV-1 Tat transactivation. On the day preceding the assay, the cells are plated at 1 × 10^4 well and incubated at 37°C overnight. Total cell and viability quantification is performed using a hemacytometer and trypan blue exclusion.
# The virus used for these tests is the CXCR4-tropic strain HIV-1IIIB. […] For each assay, a pre-titered aliquot of virus is removed from the freezer (−80°C) and allowed to thaw slowly to room temperature in a biological safety cabinet.
# Compounds are evaluated at one or two concentrations (e.g., for initial screening) or in dose-response at six concentrations (triplicate wells/concentration). On the day of assay setup, compound dilutions are prepared at two-times (2×) the final required concentrations. Media used for plating the cells the day before assay setup is aspirated from the plates and replaced with 50 μL of the 2× compounds, followed by the addition of 50 μL of virus, which dilutes the compounds to the final 1X concentrations. Cell control wells (cells only) and virus control wells (cells plus virus) are included on each assay plate. Identical uninfected assay plates (virus replaced with media) are prepared for parallel cytotoxicity testing.
# Once HIV-1 has attached and entered the MAGI-CXCR4 cells, HIV-1 Tat transactivates the LTR dependent β-galactosidase enzyme to express higher than normal levels of β-galactosidase. […] At 48 hours or 6 days post infection, plates are aspirated, and PBS is added to each well. Gal-screen reagent (Tropix, Bedford, MA) is then added per the manufacturer's instructions for chemiluminescent detection of β-galactosidase activity and incubated at room temperature for 90 minutes. The resulting chemiluminescence signal is then read using a Microbeta Trilux luminescence reader (PerkinElmer/Wallac).
# Percent inhibition of virus replication and percent cell viability at each concentration are calculated using an in-house computer program. […] Raw data for both antiviral activity and cytotoxicity with analyzed/tabulated data are provided in a printout summarizing the individual compound activity. For dose-response testing, a graphical representation of the data is also provided.
# MDA-MB-231 cells [3] = assay: Mitochondrial depolarization of MDA-MB-231 breast cancer cells (JC-1 stain); settings: for depolarization of MDA-MB-231 cells in dose response (qualitative): Figure 10; for EC50 / inhibition at 100 µM: Homo sapiens; for inhibition at 100 µM: MDA-MB-231, read-out: inhibition (effect) reached in MDA-MB-231 depolarization assay; for depolarization of MDA-MB-231 cells (qualitative): at concentrations below 10 μM; for depolarization/apoptosis of MDA-MB-231 cells (qualitative): up to 100 μM
# CXCR4 = biological target: T1, CXCR4 (Homo sapiens, UniProt P61073); assay: Inhibition of SDF-1α-mediated calcium flux in CXCR4-expressing CEM cells; assay type: cell-based; settings: for IC50: read-out: CEM SDF-1 Ca2+ Flux IC50
# T1 construct: CXCR4-expressing CEM cells; endogenous in cells; host or cells: CEM cells
# Protocol: CXCR4- expressing CEM cells were loaded with Fluo-4, washed, and pre- incubated with the indicated concentrations of test compounds for 10 min.
# Jurkat cells = assay: M1 peptide-induced apoptosis in Jurkat cultures (TUNEL); assay type: cell-based, human
# Protocol: (A) Fluorescent microscopy images of Jurkat cultures stained via TUNEL. (B) TUNEL stained cells were counted and quantified. Fluorescent microscopy images were arranged with Adobe photoshop 6.0 software and analyzed by Image-Pro 6.3 software (Media Cybernetics, Silver Spring, MD).
# as §1
# [4] = Homo sapiens, Jurkat, read-out: EC50 against M1-mediated apoptosis in Jurkat cells
# [5] = Human immunodeficiency virus 1, MAGI, read-out: HIV-1IIIB MAGI IC50
# [6] = Human immunodeficiency virus 1, MAGI-CCR5/CXCR4 cells, β-galactosidase reporter, read-out: HeLa HIV-1IIIB MAGI IC50
# [7] = MDA-MB-231, 24 h, read-out: MDA-MB-231 Depolarization EC50
# [8] = Homo sapiens, Jurkat, 24 h, concentration inhibiting M1-induced mitochondrial depolarization by 50%, 10 ng/mL M1, 24 h, read-out: Jurkat M1 Inhibition EC50
# [9] = MDA-MB-231, read-out: EC50 depolarization/apoptosis of MDA-MB-231 cells
# T1 sequence (P61073 whole entry): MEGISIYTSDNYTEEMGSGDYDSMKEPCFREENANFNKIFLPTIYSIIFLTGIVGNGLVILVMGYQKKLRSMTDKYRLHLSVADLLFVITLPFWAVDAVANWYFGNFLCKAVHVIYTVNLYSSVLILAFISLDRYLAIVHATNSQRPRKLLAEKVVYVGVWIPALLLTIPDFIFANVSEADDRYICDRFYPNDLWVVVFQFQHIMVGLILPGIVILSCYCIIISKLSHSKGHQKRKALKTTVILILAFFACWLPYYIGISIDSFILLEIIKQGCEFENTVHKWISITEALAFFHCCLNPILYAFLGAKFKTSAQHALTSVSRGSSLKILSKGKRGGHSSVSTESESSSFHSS
IC50 (HIV-1IIIB; [6]),EC50 (MDA-MB-231 cells [3]; [7]),IC50 (CXCR4),"EC50 [2, 8]",Molecule,also measured
3 nM,> 100000 nM,7700 nM,–,NCCCCN(C[C@H]1Cc2ccccc2CN1Cc1ccncn1)[C@H]1CCCc2cccnc21 [Compound 4],"EC50 [2, 4]: 52 nM; IC50 (HIV-1IIIB; [5]): < 100 nM; inhibition at 100 µM (MDA-MB-231 cells [3]): ~20%; depolarization of MDA-MB-231 cells (qualitative) (MDA-MB-231 cells [3]): failed to depolarize; depolarization/apoptosis of MDA-MB-231 cells (qualitative) (MDA-MB-231 cells [3]): no apoptosis; also recorded: failed to depolarize; depolarization/apoptosis of MDA-MB-231 cells (qualitative) (MDA-MB-231 cells [3]; listed as compound 4): no effect"
30 nM,0.39 nM,190 nM,10 nM,NCCCN(C[C@@H]1CN(Cc2ccccc2)CCN1)[C@H]1CCCc2cccnc21 [Compound 5],–
850 nM,10000 nM,3300 nM,–,CN(C[C@@H]1CN(Cc2ccccc2)CCN1)[C@H]1CCCc2cccnc21 [Compound 6],"EC50 [2, 4]: 53 nM; IC50 (HIV-1IIIB; [5]): < 100 nM; inhibition at 100 µM (MDA-MB-231 cells [3]): ≤ 65%; depolarization of MDA-MB-231 cells (qualitative) (MDA-MB-231 cells [3]): failed to depolarize"
8010 nM,85000 nM,> 50000 nM,12700 nM,CN(C[C@@H]1CN(Cc2ccc(C(F)(F)F)cc2)CCN1)[C@H]1CCCc2cccnc21 [Compound 7],–
> 10000 nM,81 nM,> 10000 nM,12000 nM,"c1cnc(NCc2ccc(CNc3ncccn3)cc2)nc1 [MSX-122, reference compound]",CXCR4 functional response in calcium flux assay (qualitative) (CXCR4): no measurable CXCR4 functional response; EC50 (MDA-MB-231 cells [3]; [9]): < 100 nM

# The remaining lines, values behind:
Molecule,IC50 (HIV-1IIIB; [6]),EC50 (MDA-MB-231 cells [3]; [7]),IC50 (CXCR4),"EC50 [2, 8]",also measured
"c1cc(CN2CCCNCCNCCCNCC2)ccc1CN1CCCNCCNCCCNCC1 [AMD3100, reference compound]",2 nM,123 nM,–,–,"Apoptosis (%) (MDA-MB-231 cells [1]): 89.5%; EC50 [2, 4]: 473 nM; IC50 (HIV-1IIIB; [5]): 2 to 5 nM; Depolarization (%) (MDA-MB-231 cells [3]; Figure 8A, JC-1 staining): 91%; depolarization of MDA-MB-231 cells in dose response (qualitative) (MDA-MB-231 cells [3]): significant depolarization"
"Cc1cn([C@H]2C[C@H](N=[N+]=[N-])[C@@H](CO)O2)c(=O)[nH]c1=O [AZT, reference compound]",–,–,–,–,protection against M1 (control drugs) [2]: did not confer protection; depolarization of MDA-MB-231 cells in dose response (qualitative) (MDA-MB-231 cells [3]): No depolarization
NC(=O)NCCCCN(C[C@H]1Cc2ccccc2CN1)[C@H]1CCCc2cccnc21 [Compound 1],–,0.8 nM,4 nM,0.3 nM,"IC50 (HIV-1IIIB; Human immunodeficiency virus 1, MAGI, read-out: HeLa HIV-1IIIB MAGI IC50): 210 nM"
c1ccc(CNCCCCN(C[C@H]2Cc3ccccc3CN2)[C@H]2CCCc3cccnc32)nc1 [Compound 2],–,–,–,–,Apoptosis (%) (MDA-MB-231 cells [1]): 93%
NCCCCN(C[C@H]1Cc2ccccc2CN1Cc1cnccn1)[C@H]1CCCc2cccnc21 [Compound 3],790 nM,15 nM,110 nM,3.5 nM,inhibition at 100 µM (MDA-MB-231 cells [3]): ≤ 65%
c1ccc(Cc2cn[nH]c2C2CCN(Cc3ccncc3)CC2)cc1 [Compound 8],780 nM,28 nM,–,1100 nM,CXCR4 functional response in calcium flux assay (qualitative) (CXCR4): no measurable CXCR4 functional response; EC50 (MDA-MB-231 cells [3]; [9]): < 100 nM
"CC1(C)CN2C(CSC(=NC3CCCCC3)NC3CCCCC3)=CSC2=N1 [IT1t, reference compound]",10 nM,6.25 nM,–,–,"EC50 [2, 4]: < 100 nM; EC50 ([2]; concentration inhibiting M1-induced mitochondrial depolarization by 50%, 10 ng/mL M1, 24 h, listed as It1t, read-out: Jurkat M1 Inhibition EC50): 0.7 nM; EC50 ([2]; concentration inhibiting M1-induced mitochondrial depolarization by 50%, 10 ng/mL M1, 24 h, read-out: Jurkat M1 Inhibition EC50): ≤ 1000 nM; protection from M1-mediated apoptosis (Jurkat cells; prophylactic 50 nM, then M1): complete protection"
Maraviroc [reference compound],–,–,–,–,protection against M1 (control drugs) [2]: did not confer protection; depolarization of MDA-MB-231 cells in dose response (qualitative) (MDA-MB-231 cells [3]): No depolarization
"TNAACAWLEAQ [Compound M1, pro-apoptotic peptide, residues 50–60 of HIV-1 Nef]",–,–,–,–,"apoptosis induction in Jurkat cultures by peptide (Jurkat cells; 10 ng/mL, 24 h, no antagonist): displayed apoptosis"
